Assays:
[1] = system: multiparous Holstein cows; assay: Intramammary infusion at dry-off in Holstein cows (milk yield, milk composition, plasma lactose); format: in vivo, cow; conditions: for milk yield decline: day one following initiation of treatments, 5 mg in 5 ml carrier per quarter, control down 7.5 kg; for drop in amount of milk versus cows not receiving any infusion: after the first of three daily infusions, FIG. 6
Method: In a set of experiments, forty-five multiparous Holstein cows milked three times daily and producing at least 20 kg/day were randomly assigned to once a day milking and one of three intramammary treatments in each quarter for three days. A control group of fifteen cows received 5 ml of a carrier of 9:1 sterile water and oil via infusion. […] The third group of fifteen cows received a treatment of 5 ml the carrier containing 5 mg of the precursor for serotonin synthesis (5-HTP) via infusion.
The milk yield decline was greater for the second group (down 9.5 kg) and the third group (down 10.0 kg) than that of the first group (down 7.5 kg) on day one following the initiation of treatments (P<0.01).
The amount of milk dropped close to 10% for those cows receiving an infusion of 5-HTP versus cows not receiving any infusion.
Milk lactose, protein, and fat percentage were not affected by treatments, but the milk sodium to potassium ratio increased to 2.8 in the second group on day two as compared to 1.44 in the first group and 1.78 in the third group, (P<0.01).

[2] = system: primary human breast epithelial cells; assay: TEER of human mammary cultures; format: cell-based; conditions: for TEER change (FIG. 3): combination read at 36 hours
Source text: FIG. 3 is a graphic illustration of a similar experiment performed on mammary gland cultures biopsied from primary human breast epithelial cells.

[3] = system: cultures of mammary tissues taken from a lactating mouse; assay: Trans-epithelial electrical resistance (TEER) of mouse mammary tissue cultures; format: cell-based; parameters: dose or concentration left out as unconfirmed; conditions: fluoxetine, measured at 48 hours

SMILES	milk yield decline ([1]; P<0.01) [kg]	drop in amount of milk versus cows not receiving any infusion ([1]; day two) [%]	milk sodium to potassium ratio ([1]; day two, first (control) group 1.44, P<0.01)	reduction in TEER ([2]; FIG. 3) [%]	TEER change (FIG. 2) [3]	TEER change (FIG. 3) [2]	plasma lactose increase compared to the other two groups ([1]; day 1 post-infusion, P<0.001)
N[C@@H](Cc1c[nH]c2ccc(O)cc12)C(=O)O [5-HTP, 5-hydroxytryptophan]	10.0	~10	1.78	–	–	–	–
CCN[C@@H](C)Cc1cccc(C(F)(F)F)c1 [dexfenfluramine]	–	–	–	50	decrease in TEER similar to that of the combination of phenelzine and fluoxetine	–	–
CNCCC(Oc1ccc(C(F)(F)F)cc1)c1ccccc1 (centres unmarked) [fluoxetine]	9.5	~31	–	–	–	did not change TEER	increased two-fold
NNCCc1ccccc1 [phenelzine]	–	–	–	–	small but significant increase in TEER	caused a decrease	–
